{"source": "patent US4639509A", "about": "“[16,19-Di-alanine] calcitonin” (Armour Pharmaceutical Company, priority 1985, dated 1987)", "key": {"[1]": {"tested_on": "serum calcium concentration", "procedure": "Rats were divided into four groups of seven animals, and each group was assigned at random to a dose of standard or test solution. Low and high doses were chosen from the linear portion of the dose-responsive curve. For the salmon calcitonin standard, the values were 0.7 and 2.1 mcg. peptide/100 g. body weight (BW). This dose approximates 3 and 9 MU/100 g. BW. Peptides were given by subcutaneous injection (0.2 ml/100 g. BW) and blood was withdrawn 1 hour later for serum calcium determination. Sera are processed and analyzed within two hours of collection. Results were analyzed within two hours of collection."}, "[2]": {"details": "literature values; cited from earlier work"}}, "note": "Bridge positions count the residues as written; N and C are the ends. Peptide text beside a SMILES is read from it.", "data": [{"compound": "CC(C)C[C@H](NC(=O)[C@H](CCCCN)NC(=O)CNC(=O)[C@H](CC(C)C)NC(=O)[C@@H](NC(=O)[C@@H]1CSSC[C@H](N)C(=O)N[C@@H](CO)C(=O)N[C@@H](CC(N)=O)C(=O)N[C@@H](CC(C)C)C(=O)N[C@@H](CO)C(=O)N[C@@H]([C@@H](C)O)C(=O)N1)C(C)C)C(=O)N[C@@H](CO)C(=O)N[C@@H](CCC(N)=O)C(=O)N[C@@H](CCC(=O)O)C(=O)N[C@@H](CC(C)C)C(=O)N[C@@H](Cc1c[nH]cn1)C(=O)N[C@@H](CCCCN)C(=O)N[C@@H](CC(C)C)C(=O)N[C@@H](CCC(N)=O)C(=O)N[C@H](C(=O)N[C@@H](Cc1ccc(O)cc1)C(=O)N1CCC[C@H]1C(=O)N[C@@H](CCCNC(=N)N)C(=O)N[C@H](C(=O)N[C@@H](CC(N)=O)C(=O)N[C@H](C(=O)NCC(=O)N[C@@H](CO)C(=O)NCC(=O)N[C@H](C(=O)N1CCC[C@H]1C(N)=O)[C@@H](C)O)[C@@H](C)O)[C@@H](C)O)[C@@H](C)O", "note": "[standard salmon calcitonin, Salmon calcitonin]", "values": [{"measurement": "potency content of the standard", "setting": "[1]; standard used in the assay, independently determined", "value": "greater than 4,000 IU/mg"}]}, {"compound": "(1,7-α-L-amino-suberic acid)eel calcitonin", "values": [{"measurement": "hypocalcemic potency", "setting": "[2]", "value": "about 3400 Iu/mg"}]}, {"compound": "CC(C)C[C@H](NC(=O)[C@H](CCCCN)NC(=O)CNC(=O)[C@H](CC(C)C)NC(=O)[C@@H](NC(=O)[C@@H]1CSSC[C@H](N)C(=O)N[C@@H](CO)C(=O)N[C@@H](CC(N)=O)C(=O)N[C@@H](CC(C)C)C(=O)N[C@@H](CO)C(=O)N[C@@H]([C@@H](C)O)C(=O)N1)C(C)C)C(=O)N[C@@H](CO)C(=O)N[C@@H](CCC(N)=O)C(=O)N[C@@H](CCC(=O)O)C(=O)N[C@@H](C)C(=O)N[C@@H](Cc1c[nH]cn1)C(=O)N[C@@H](CCCCN)C(=O)N[C@@H](C)C(=O)N[C@@H](CCC(N)=O)C(=O)N[C@H](C(=O)N[C@@H](Cc1ccc(O)cc1)C(=O)N1CCC[C@H]1C(=O)N[C@@H](CCCNC(=N)N)C(=O)N[C@H](C(=O)N[C@@H](CC(N)=O)C(=O)N[C@H](C(=O)NCC(=O)N[C@@H](CO)C(=O)NCC(=O)N[C@H](C(=O)N1CCC[C@H]1C(N)=O)[C@@H](C)O)[C@@H](C)O)[C@@H](C)O)[C@@H](C)O", "note": "[[Di-Ala^16,19]SCT, [16,19-Di-Alanine]salmon calcitonin] (H-CSNLSTCVLGKLSQEAHKAQTYPRTNTGSGTP-NH2; disulfide 1-7)", "values": [{"measurement": "biological potency", "setting": "[1]; rat, in vivo, sc", "value": 7200, "unit": "IU/mg"}]}]}
